From patent EP2495244A1, “Piperidinyl benzoimidazole derivatives as mPGEs-1 inhibitors” (NovaSaid AB, priority 2011, dated 2012)

Tests used:
cellular PGE2 synthesis = assay: A549 cell-assay (PGE2 content of supernatant by EIA); assay type: cell-based; conditions: Homo sapiens, A549 lung carcinoma cells, TNFalfa (5 ng/mL) and IL-1beta (5 ng/mL) 16 hours, 30 minutes with test compound, 10 µM arachidonic acid 30 minutes, arithmetic mean values
Method: Prostaglandin detection kits were purchased from Cayman Chemicals and used according to the instruction of the manufacturer.
A549 lung carcinoma cells, seeded at a density of 10, 000 cells/well, were grown in 96 well tissue culture plates. TNFalfa (5 ng/mL) and IL-1beta (5 ng/mL) were added and the cells were incubated for 16 hours. Cells were washed in PBS and test compounds at the appropriate concentration in HBSS/0.1% BSA were added. After 30 minutes of incubation with test compounds, 10 µM arachidonic acid was added and cells were further incubated for 30 minutes. Supernatant was collected and analyzed for PGE2 content by EIA according to manufacturer's instructions. Table 1. Inhibition of human mPGEs-1 and cellular PGE2 synthesis.

human mPGEs-1 = target: T1, human mPGEs-1 (Homo sapiens, UniProt O14684); assay: Thiobarbituric acid assay (TBA-MDA assay, malondialdehyde assay) for inhibition of mPGEs-1
T1 sequence (O14684 1-152): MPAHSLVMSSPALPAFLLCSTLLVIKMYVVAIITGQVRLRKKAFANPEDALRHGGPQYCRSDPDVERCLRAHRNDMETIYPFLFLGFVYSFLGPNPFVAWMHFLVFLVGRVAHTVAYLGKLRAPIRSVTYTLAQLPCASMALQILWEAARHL

Q: `O=C(N[C@@H]1CCOC1)C1CCN(c2nc3cc(Cl)c(Cl)cc3n2-c2ccc3ccccc3n2)CC1` [Example 1, (R)-1-(5,6-Dichloro-1-(quinolin-2-yl)-1H-benzo[d]imidazol-2-yl)-N-(tetrahydrofuran-3-yl)piperidine-4-carboxamide] was tested. Which IC50 (cellular PGE2 synthesis) did it give?
A: Its IC50 is 43 nM.

Q: What does the source list for `Cc1cc2c(cc1Cl)nc(N1CCC(C(=O)N[C@@H]3CCOC3)CC1)n2-c1ccc2ccccc2n1` [Example 2, (R)-1-(5-Chloro-6-methyl-1-(quinolin-2-yl)-1H-benzo[d]imidazol-2-yl)-N-(tetrahydrofuran-3-yl)piperidine-4-carboxamide]?
A: IC50 (human mPGEs-1): 25 nM; IC50 (cellular PGE2 synthesis): 58 nM

Q: How did the IC50 (human mPGEs-1) turn out when `Cc1cc2nc(N3CCC(C(=O)N[C@@H]4CCOC4)CC3)n(-c3ccc4ccccc4n3)c2cc1Cl` [Example 3, (R)-1-(6-Chloro-5-methyl-1-(quinolin-2-yl)-1H-benzo[d]imidazol-2-yl)-N (tetrahydrofuran-3-yl)piperidine-4-carboxamide] was run?
A: The IC50 was 37 nM.

Q: And the IC50 (cellular PGE2 synthesis)?
A: The IC50 was 58 nM.

Q: Which IC50 (human mPGEs-1) does the source give for `O=C(N[C@@H]1CCOC1)C1CCN(c2nc3cc(Cl)c(Cl)cc3n2-c2ccc3cc(Cl)ccc3n2)CC1` [Example 4, (R)-1-(5,6-Dichloro-1-(6-chloroquinolin-2-yl)-1H-benzo[d]imidazol-2-yl)-N-(tetrahydrofuran-3-yl)piperidine-4-carboxamide] here?
A: Its IC50 is 35 nM.

Q: And the IC50 (cellular PGE2 synthesis)?
A: The IC50 was 44 nM.

Q: How did the IC50 (human mPGEs-1) turn out when `O=C(N[C@@H]1CCOC1)C1CCN(c2nc3cc(Cl)c(Cl)cc3n2-c2ccc3cccc(Cl)c3n2)CC1` [Example 5, (R)-1-(5,6-Dichloro-1-(8-chloroquinolin-2-yl)-1H-benzo[d]imidazol-2-yl)-N-(tetrahydrofuran-3-yl)piperidine-4-carboxamide] was run?
A: Its IC50 is 34 nM.

Q: And the IC50 (cellular PGE2 synthesis)?
A: The IC50 was 4 nM.

Q: For `Cc1cc2nc(N3CCC(C(=O)N[C@@H]4CCOC4)CC3)n(-c3ccc4cc(Cl)ccc4n3)c2cc1C` [Example 6, (R)-1-(1-(6-Chloroquinolin-2-yl)-5,6-dimethyl-1H-benzo[d]imidazol-2-yl)-N-(tetrahydrofuran-3-yl)piperidine-4-carboxamide], which IC50 (human mPGEs-1) is on record?
A: Its IC50 is 58 nM.

Q: What about the IC50 (cellular PGE2 synthesis) of the same compound?
A: The IC50 was 50 nM.

Q: With `Cc1cc(-n2c(N3CCC(C(=O)N[C@@H]4CCOC4)CC3)nc3cc(Cl)c(Cl)cc32)nc2ccccc12` [Example 7, (R)-1-(5,6-Dichloro-1-(4-methylquinolin-2-yl)-1H-benzo[d]imidazol-2-yl)-N-(tetrahydrofuran-3-yl)piperidine-4-carboxamide] as the compound, how does the IC50 (human mPGEs-1) read?
A: The IC50 was 32 nM.

Q: And the IC50 (cellular PGE2 synthesis)?
A: Its IC50 is 30 nM.

Q: How did the IC50 (human mPGEs-1) turn out when `Cc1cc2c(cc1Cl)nc(N1CCC(C(=O)N[C@@H]3CCOC3)CC1)n2-c1ccc2cc(Cl)ccc2n1` [Example 8, (R)-1-(5-Chloro-1-(6-chloroquinolin-2-yl)-6-methyl-1H-benzo[d]imidazol-2-yl)-N-(tetrahydrofuran-3-yl)piperidine-4-carboxamide] was run?
A: Its IC50 is 31 nM.

Q: And the IC50 (cellular PGE2 synthesis)?
A: Its IC50 is 40 nM.

Q: With `Cc1cc2nc(N3CCC(C(=O)N[C@@H]4CCOC4)CC3)n(-c3ccc4cc(Cl)ccc4n3)c2cc1Cl` [Example 9, (R)-1-(6-Chloro-1-(6-chloroquinolin-2-yl)-5-methyl-1H-benzo[d]imidazol-2-yl)-N-(tetrahydrofuran-3-yl)piperidine-4-carboxamide] as the compound, how does the IC50 (human mPGEs-1) read?
A: The IC50 was 51 nM.

Q: And the IC50 (cellular PGE2 synthesis)?
A: The IC50 was 67 nM.

Q: For `O=C(N[C@@H]1CCOC1)C1CCN(c2nc3cc(Cl)c(Cl)cc3n2-c2ccc3cc(F)ccc3n2)CC1` [Example 10, (R)-1-(5,6-Dichloro-1-(6-fluoroquinolin-2-yl)-1H-benzo[d]imidazol-2-yl)-N-(tetrahydrofuran-3-yl)piperidine-4-carboxamide], which IC50 (human mPGEs-1) is on record?
A: Its IC50 is 42 nM.

Q: What about the IC50 (cellular PGE2 synthesis) of the same compound?
A: The IC50 was 61 nM.

Q: What does the source list for `Cc1cc2c(cc1Cl)nc(N1CCC(C(=O)N[C@@H]3CCOC3)CC1)n2-c1ccc2cc(F)ccc2n1` [Example 11, (R)-1-(5-Chloro-1-(6-fluoroquinolin-2-yl)-6-methyl-1H-benzo[d]imidazol-2-yl)-N-(tetrahydrofuran-3-yl)piperidine-4-carboxamide]?
A: IC50 (human mPGEs-1): 47 nM; IC50 (cellular PGE2 synthesis): 16 nM

Q: `Cc1cc2nc(N3CCC(C(=O)N[C@@H]4CCOC4)CC3)n(-c3ccc4cc(F)ccc4n3)c2cc1Cl` [Example 12, (R)-1-(6-Chloro-1-(6-fluoroquinolin-2-yl)-5-methyl-1H-benzo[d]imidazol-2-yl)-N-(tetrahydrofuran-3-yl)piperidine-4-carboxamide] was tested. Which IC50 (human mPGEs-1) did it give?
A: Its IC50 is 26 nM.

Q: What about the IC50 (cellular PGE2 synthesis) of the same compound?
A: The IC50 was 24 nM.

Q: For `O=C(N[C@@H]1CCOC1)C1CCN(c2nc3cc(Cl)c(Cl)cc3n2-c2ccc3cccc(F)c3n2)CC1` [Example 13, (R)-1-(5,6-Dichloro-1-(8-fluoroquinolin-2-yl)-1H-benzo[d]imidazol-2-yl)-N-(tetrahydrofuran-3-yl)piperidine-4-carboxamide], which IC50 (human mPGEs-1) is on record?
A: Its IC50 is 30 nM.

Q: With `O=C(N[C@@H]1CCOC1)C1CCN(c2nc3cc(Cl)c(Cl)cc3n2-c2cc3ccccc3cn2)CC1` [Example 14, (R)-1-(5,6-Dichloro-1-(isoquinolin-3-yl)-1H-benzo[d]imidazol-2-yl)-N-(tetrahydrofuran-3-yl)piperidine-4-carboxamide] as the compound, how does the IC50 (human mPGEs-1) read?
A: The IC50 was 21 nM.

Q: Which IC50 (human mPGEs-1) does the source give for `Cc1cc2nc(N3CCC(C(=O)N[C@@H]4CCOC4)CC3)n(-c3ccc4ncccc4c3)c2cc1C` [Example 15, (R)-1-(5,6-dimethyl-1-(quinolin-6-yl)-1H-benzo[d]imidazol-2-yl)-N-(tetrahydrofuran-3-yl)piperidine-4-carboxamide] here?
A: Its IC50 is 65 nM.

Q: What about the IC50 (cellular PGE2 synthesis) of the same compound?
A: Its IC50 is 66 nM.

Q: `O=C(N[C@@H]1CCOC1)C1CCN(c2nc3cc(Cl)c(Cl)cc3n2-c2ccccn2)CC1` [Example 16, (R)-1-(5,6-dichloro-1-(pyridin-2-yl)-1H-benzo[d]imidazol-2-yl)-N-(tetrahydrofuran-3-yl)piperidine-4-carboxamide] was tested. Which IC50 (human mPGEs-1) did it give?
A: The IC50 was 150 nM.
